Data reported in ChEMBL document CHEMBL1122521, “Nucleic acid related compounds. 47. Synthesis and biological activities of pyrimidine and purine "acyclic" nucleoside analogues” (J Med Chem, 1984).
Converted amounts (≈) assume the structure as drawn.

tested on: Human alphaherpesvirus 2; experiment: Concentration required to reduce cytopathogenicity of Herpes simplex virus type 2 (strain G) by 50% in primary rabbit kidney (PRK) cells; format: functional; details: not given

SMILES	ID50 [µg/mL]
O=c1cc(O)ccn1COCCO	>400
Cc1nc2c(O)nc(N)nc2n1COCCO	0.5 (≈ 2.09 µM)
Nc1nc2c(nc(Cl)n2COCCO)c(=O)[nH]1	>400
Nc1nc(=O)ccn1COCCO	>400
CC(=O)OCCOCn1cc(/C=C/Br)c(=O)[nH]c1=O	>400
Nc1nc(=O)n(COCCO)cc1[N+](=O)[O-]	>400
OCCOCn1cnc2c(O)ncnc21	>400
O=c1ccn(COCCO)c(=O)[nH]1	>400
O=c1[nH]c(=O)n([C@H]2C[C@H](O)[C@@H](CO)O2)cc1/C=C/Br [BRIVUDINE]	2 (≈ 6 µM)
Nc1ccn(COCCO)c(=O)n1	100 (≈ 540 µM)
CN(C)c1ncnc2c1ncn2COCCO	>400
CC(=O)OCCOCn1cnc2c(Cl)ncnc21	70 (≈ 259 µM)
Nc1nc2c(nc(Br)n2COCCO)c(=O)[nH]1	0.5 (≈ 1.64 µM)
O=c1[nH]c(=O)n(COCCO)cc1Br	>400
Nc1ncnc2c1ncn2COCCO	10 (≈ 47.8 µM)
Nc1nc2c(nc(N)n2COCCO)c(=O)[nH]1	0.3 (≈ 1.25 µM)

tested on: Human alphaherpesvirus 1; experiment: Concentration required to reduce cytopathogenicity of Herpes simplex virus type 1 (strain KOS) by 50% in primary rabbit kidney (PRK) cells; format: functional; details: not given

SMILES	ID50 [µg/mL]
O=c1cc(O)ccn1COCCO	>400
Cc1nc2c(O)nc(N)nc2n1COCCO	0.5 (≈ 2.09 µM)
Nc1nc2c(nc(Cl)n2COCCO)c(=O)[nH]1	70 (≈ 270 µM)
Nc1nc(=O)ccn1COCCO	>400
CC(=O)OCCOCn1cc(/C=C/Br)c(=O)[nH]c1=O	>400
Nc1nc(=O)n(COCCO)cc1[N+](=O)[O-]	>400
OCCOCn1cnc2c(O)ncnc21	>400
O=c1ccn(COCCO)c(=O)[nH]1	>400
O=c1[nH]c(=O)n([C@H]2C[C@H](O)[C@@H](CO)O2)cc1/C=C/Br [BRIVUDINE]	0.007 (≈ 0.021 µM)
Nc1ccn(COCCO)c(=O)n1	70 (≈ 378 µM)
CN(C)c1ncnc2c1ncn2COCCO	>400
CC(=O)OCCOCn1cnc2c(Cl)ncnc21	70 (≈ 259 µM)
Nc1nc2c(nc(Br)n2COCCO)c(=O)[nH]1	0.5 (≈ 1.64 µM)
O=c1[nH]c(=O)n(COCCO)cc1Br	>400
Nc1ncnc2c1ncn2COCCO	10 (≈ 47.8 µM)
Nc1nc2c(nc(N)n2COCCO)c(=O)[nH]1	0.7 (≈ 2.91 µM)

tested on: L1210; experiment: Inhibitory concentration required to reduce [14C-2]-dUrd incorporation into cellular DNA by 50% in Murine Leukemia L1210 cells; format: functional; details: Mus musculus, read-out: ID50 (the source's name)

SMILES	IC50 [ng/mL]
O=c1[nH]c(=O)n([C@H]2C[C@H](O)[C@@H](CO)O2)cc1F [FLOXURIDINE]	3 (≈ 0.0122 µM)

tested on: L1210; experiment: Inhibitory concentration required to reduce [3H-methyl]-dThd C incorporation into cellular DNA by 50% in Murine Leukemia L1210 cells; format: functional; details: Mus musculus, read-out: ID50 (the source's name)

SMILES	IC50 [µg/mL]
O=c1cc(O)ccn1COCCO	> 1000
Cc1nc2c(O)nc(N)nc2n1COCCO	> 500
Nc1nc2c(nc(Cl)n2COCCO)c(=O)[nH]1	> 1000
Nc1nc(=O)ccn1COCCO	> 500
CC(=O)OCCOCn1cc(/C=C/Br)c(=O)[nH]c1=O	> 1000
Nc1nc(=O)n(COCCO)cc1[N+](=O)[O-]	> 500
OCCOCn1cnc2c(O)ncnc21	> 1000
O=c1[nH]c(=O)n([C@H]2C[C@H](O)[C@@H](CO)O2)cc1F [FLOXURIDINE]	80 (≈ 325 µM)
O=c1ccn(COCCO)c(=O)[nH]1	> 1000
Nc1ccn(COCCO)c(=O)n1	> 1000
CN(C)c1ncnc2c1ncn2COCCO	> 500
CC(=O)OCCOCn1cnc2c(Cl)ncnc21	475 (≈ 1750 µM)
Nc1nc2c(nc(Br)n2COCCO)c(=O)[nH]1	> 500
O=c1[nH]c(=O)n(COCCO)cc1Br	> 1000
Nc1ncnc2c1ncn2COCCO	> 1000
Nc1nc2c(nc(N)n2COCCO)c(=O)[nH]1	500 (≈ 2080 µM)

tested on: L1210; experiment: Inhibitory concentration required to reduce [3H1',2']dUrd incorporation into cellular DNA by 50% in Murine Leukemia L1210 cells; format: functional; details: Mus musculus, read-out: ID50 (the source's name)

SMILES	IC50 [µg/mL]
O=c1cc(O)ccn1COCCO	> 1000
Cc1nc2c(O)nc(N)nc2n1COCCO	> 500
Nc1nc2c(nc(Cl)n2COCCO)c(=O)[nH]1	> 1000
Nc1nc(=O)ccn1COCCO	> 500
CC(=O)OCCOCn1cc(/C=C/Br)c(=O)[nH]c1=O	> 1000
Nc1nc(=O)n(COCCO)cc1[N+](=O)[O-]	374 (≈ 1620 µM)
OCCOCn1cnc2c(O)ncnc21	> 1000
O=c1ccn(COCCO)c(=O)[nH]1	> 1000
Nc1ccn(COCCO)c(=O)n1	> 1000
CN(C)c1ncnc2c1ncn2COCCO	> 500
CC(=O)OCCOCn1cnc2c(Cl)ncnc21	233 (≈ 861 µM)
O=c1[nH]c(=O)n(COCCO)cc1Br	> 1000
Nc1ncnc2c1ncn2COCCO	> 1000

tested on: L1210; experiment: Inhibitory concentration required to reduce [3H1',2']dUrd incorporation into cellular DNA by 50 %; format: functional; details: Mus musculus, read-out: ID50 (the source's name)

SMILES	IC50 [µg/mL]
Nc1nc2c(nc(Br)n2COCCO)c(=O)[nH]1	> 500
Nc1nc2c(nc(N)n2COCCO)c(=O)[nH]1	500 (≈ 2080 µM)

tested on: L1210; experiment: Inhibitory concentration required to reduce cell growth of Murine Leukemia L1210 cells; format: functional; details: Mus musculus, read-out: ID50 (the source's name)

SMILES	IC50 [µg/mL]
O=c1cc(O)ccn1COCCO	> 1000
Cc1nc2c(O)nc(N)nc2n1COCCO	323 (≈ 1350 µM)
Nc1nc2c(nc(Cl)n2COCCO)c(=O)[nH]1	350 (≈ 1350 µM)
Nc1nc(=O)ccn1COCCO	> 500
CC(=O)OCCOCn1cc(/C=C/Br)c(=O)[nH]c1=O	> 1000
Nc1nc(=O)n(COCCO)cc1[N+](=O)[O-]	71 (≈ 308 µM)
OCCOCn1cnc2c(O)ncnc21	> 1000
O=c1[nH]c(=O)n([C@H]2C[C@H](O)[C@@H](CO)O2)cc1F [FLOXURIDINE]	0.001 (≈ 0.00406 µM)
O=c1ccn(COCCO)c(=O)[nH]1	> 1000
Nc1ccn(COCCO)c(=O)n1	675 (≈ 3650 µM)
CN(C)c1ncnc2c1ncn2COCCO	> 500
CC(=O)OCCOCn1cnc2c(Cl)ncnc21	44 (≈ 163 µM)
Nc1nc2c(nc(Br)n2COCCO)c(=O)[nH]1	355 (≈ 1170 µM)
O=c1[nH]c(=O)n(COCCO)cc1Br	> 1000
Nc1ncnc2c1ncn2COCCO	19 (≈ 90.8 µM)
Nc1nc2c(nc(N)n2COCCO)c(=O)[nH]1	> 500

tested on: not listed separately; experiment: Inhibitory concentration required to reduce 2-deoxyuridine ([3H-1'2']dUrd) incorporation into DNA of Primary Rabbit kidney (PRK) cell cultures; format: functional; details: Oryctolagus cuniculus, read-out: ID50 (the source's name)

SMILES	IC50 [µg/mL]
Nc1nc2c(nc(Cl)n2COCCO)c(=O)[nH]1	> 400
OCCOCn1cnc2c(O)ncnc21	> 100

tested on: not listed separately; experiment: Inhibitory concentration required to reduce incorporation of 2-deoxythymidine (dThd) into DNA of Primary Rabbit kidney (PRK) cell cultures; format: functional; details: Oryctolagus cuniculus, read-out: ID50 (the source's name)

SMILES	IC50 [µg/mL]
O=c1cc(O)ccn1COCCO	> 400
Cc1nc2c(O)nc(N)nc2n1COCCO	> 400
Nc1nc2c(nc(Cl)n2COCCO)c(=O)[nH]1	> 400
Nc1nc(=O)ccn1COCCO	> 400
CC(=O)OCCOCn1cc(/C=C/Br)c(=O)[nH]c1=O	> 200
Nc1nc(=O)n(COCCO)cc1[N+](=O)[O-]	> 400
OCCOCn1cnc2c(O)ncnc21	> 100
O=c1ccn(COCCO)c(=O)[nH]1	> 400
O=c1[nH]c(=O)n([C@H]2C[C@H](O)[C@@H](CO)O2)cc1/C=C/Br [BRIVUDINE]	73 (≈ 219 µM)
Nc1ccn(COCCO)c(=O)n1	> 400
CN(C)c1ncnc2c1ncn2COCCO	400 (≈ 1690 µM)
CC(=O)OCCOCn1cnc2c(Cl)ncnc21	60 (≈ 222 µM)
Nc1nc2c(nc(Br)n2COCCO)c(=O)[nH]1	340 (≈ 1120 µM)
O=c1[nH]c(=O)n(COCCO)cc1Br	> 400
Nc1ncnc2c1ncn2COCCO	49 (≈ 234 µM)
Nc1nc2c(nc(N)n2COCCO)c(=O)[nH]1	290 (≈ 1210 µM)

tested on: not listed separately; experiment: Inhibitory concentration required to reduce incorporation of 2-deoxyuridine (dUrd) into DNA of Primary Rabbit kidney (PRK) cell cultures; format: functional; details: Oryctolagus cuniculus, read-out: ID50 (the source's name)

SMILES	IC50 [µg/mL]
O=c1cc(O)ccn1COCCO	> 400
Cc1nc2c(O)nc(N)nc2n1COCCO	> 400
Nc1nc(=O)ccn1COCCO	> 400
CC(=O)OCCOCn1cc(/C=C/Br)c(=O)[nH]c1=O	> 400
Nc1nc(=O)n(COCCO)cc1[N+](=O)[O-]	> 400
O=c1ccn(COCCO)c(=O)[nH]1	> 400
O=c1[nH]c(=O)n([C@H]2C[C@H](O)[C@@H](CO)O2)cc1/C=C/Br [BRIVUDINE]	27 (≈ 81 µM)
Nc1ccn(COCCO)c(=O)n1	> 400
CN(C)c1ncnc2c1ncn2COCCO	> 350
CC(=O)OCCOCn1cnc2c(Cl)ncnc21	62 (≈ 229 µM)
Nc1nc2c(nc(Br)n2COCCO)c(=O)[nH]1	225 (≈ 740 µM)
O=c1[nH]c(=O)n(COCCO)cc1Br	> 400
Nc1ncnc2c1ncn2COCCO	22 (≈ 105 µM)
Nc1nc2c(nc(N)n2COCCO)c(=O)[nH]1	200 (≈ 833 µM)

tested on: Vesicular stomatitis virus; experiment: Concentration required to reduce cytopathogenicity of Vesicular stomatitis virus by 50% in primary rabbit kidney (PRK) cells; format: functional; details: not given

SMILES	ID50 [µg/mL]
Cc1nc2c(O)nc(N)nc2n1COCCO	>400
O=c1[nH]c(=O)n([C@H]2C[C@H](O)[C@@H](CO)O2)cc1/C=C/Br [BRIVUDINE]	>400
Nc1ccn(COCCO)c(=O)n1	>400
CC(=O)OCCOCn1cnc2c(Cl)ncnc21	>400
Nc1nc2c(nc(Br)n2COCCO)c(=O)[nH]1	>400
Nc1ncnc2c1ncn2COCCO	>400
Nc1nc2c(nc(N)n2COCCO)c(=O)[nH]1	>100

tested on: not listed separately; experiment: Ratio of ID50 for dThd or dUrd incorporation to ID50 for HSV-1, HSV-2 or VV(whatever was lowest); format: functional; details: not given

SMILES	Antiviral index
Cc1nc2c(O)nc(N)nc2n1COCCO	> 800
Nc1nc2c(nc(Cl)n2COCCO)c(=O)[nH]1	> 6
O=c1[nH]c(=O)n([C@H]2C[C@H](O)[C@@H](CO)O2)cc1/C=C/Br [BRIVUDINE]	3860
Nc1ccn(COCCO)c(=O)n1	> 5
CN(C)c1ncnc2c1ncn2COCCO	< 0.9
CC(=O)OCCOCn1cnc2c(Cl)ncnc21	3
Nc1nc2c(nc(Br)n2COCCO)c(=O)[nH]1	450
Nc1ncnc2c1ncn2COCCO	2.2
Nc1nc2c(nc(N)n2COCCO)c(=O)[nH]1	667
